Patent US20250382305A1 (PTC THERAPEUTICS, INC., priority 2022, published 2025)

Assays:
[1] = system: Total ATXN3 (tATXN3) protein; assay: Endogenous Total ATXN3 (tATXN3) Protein Assay (MSD immunoassay of cell lysates); type: cell-based; settings: average IC50, total ATXN3 protein in cell lysate after 48 h with compound (Table 1)
Outline: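 Cells in DMEM/10% FBS were plated at 10,000 per well onto 7-point, 3.16-fold compound dilutions in duplicate for 48 h at 37° C, then lysed. Total ATXN3 in lysates was measured by MSD sandwich immunoassay: mouse anti-ATXN3 capture, rabbit anti-ATXN3 detection, SULFO-TAG anti-rabbit. Average IC50 was reported in star bins.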

ATXN3 pre-mRNA = assay: RT-qPCR Assay to Quantify Exon 4 Skipping in ATXN3 pre-mRNA in Cells; type: cell-based; settings: percent exon 4 skipping in ATXN3 pre-mRNA, RT-qPCR of cell lysates; average IC50
Outline: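 Cells plated at 10,000/well onto a 7-point, 3.16-fold DMSO dilution series (duplicates), incubated 24 h at 37 °C, then lysed. Exon 4 skipping measured by one-step RT-qPCR (48 °C RT, 40 cycles); IC50 interpolated from dose-response fit of percent skipping.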

| Structure (SMILES) | IC50 [1] [µM] | IC50 (ATXN3 pre-mRNA) [µM] |
| --- | --- | --- |
| Cc1c([C@@H]2CC=CC[C@H]2N)sc2c(NCc3ccco3)cc(Cl)nc12 [Compound 382, 2-((1R,6R)-6-aminocyclohex-3-en-1-yl)-5-chloro-N-(furan-2-ylmethyl)-3-methylthieno[3,2-b]pyridin-7-amine] | 0.03 to 0.3 | 0.03 to 0.3 |
| N[C@@H]1CC=CC[C@H]1c1sc2c(NCc3cccs3)nc(Cl)nc2c1Br [Compound 385, 6-((1R,6R)-6-aminocyclohex-3-en-1-yl)-7-bromo-2-chloro-N-(thiophen-2-ylmethyl)thieno[3,2-d]pyrimidin-4-amine] | 0.03 to 0.3 | 0.03 to 0.3 |
| N[C@@H]1CCOC[C@H]1c1sc2c(NCc3ccco3)cc(Cl)nc2c1Cl [Compound 389, 2-((3S,4R)-4-aminotetrahydro-2H-pyran-3-yl)-3,5-dichloro-N-(furan-2-ylmethyl)thieno[3,2-b]pyridin-7-amine] | 0.3 to 1 | 0.3 to 1 |
| N[C@@H]1CC=CC[C@H]1c1sc2c(NCc3ccco3)nc(Cl)nc2c1Br [Compound 396, 6-((1R,6R)-6-aminocyclohex-3-en-1-yl)-7-bromo-2-chloro-N-(furan-2-ylmethyl)thieno[3,2-d]pyrimidin-4-amine] | 0.3 to 1 | 0.03 to 0.3 |
| Cc1c([C@H]2CC=CC[C@@H]2N)n(C(F)F)c2c(NCc3ccccc3)nc(Cl)nc12 [Compound 399, 6-((1S,6S)-6-aminocyclohex-3-en-1-yl)-N-benzyl-2-chloro-5-(difluoromethyl)-7-methyl-5H-pyrrolo[3,2-d]pyrimidin-4-amine] | 0.3 to 1 | 0.3 to 1 |
| Cc1c([C@@H]2CCCC[C@H]2N)sc2c(NCc3ccco3)cc(Cl)nc12 [Compound 401, 2-((1R,2R)-2-aminocyclohexyl)-5-chloro-N-(furan-2-ylmethyl)-3-methylthieno[3,2-b]pyridin-7-amine] | > 1 | 0.3 to 1 |
| N[C@@H]1CCOC[C@H]1c1sc2c(NCc3ccccc3)cc(Cl)nc2c1Cl [Compound 406, 2-((3S,4R)-4-aminotetrahydro-2H-pyran-3-yl)-N-benzyl-3,5-dichlorothieno[3,2-b]pyridin-7-amine] | 0.03 to 0.3 | ≤ 0.03 |
| N[C@@H]1COCC[C@H]1c1sc2c(NCc3nccs3)cc(Cl)nc2c1Cl [Compound 407, 2-((3S,4R)-3-aminotetrahydro-2H-pyran-4-yl)-3,5-dichloro-N-(thiazol-2-ylmethyl)thieno[3,2-b]pyridin-7-amine] | 0.03 to 0.3 | 0.03 to 0.3 |
| N[C@@H]1CCCC(F)(F)[C@H]1c1sc2c(NCc3cccs3)cc(Cl)nc2c1Cl [Compound 409, 2-((1S,6R)-6-amino-2,2-difluorocyclohexyl)-3,5-dichloro-N-(thiophen-2-ylmethyl)thieno[3,2-b]pyridin-7-amine] | 0.03 to 0.3 | 0.03 to 0.3 |
| N[C@@H]1CC=CC[C@H]1c1sc2c(NCc3ccccc3F)cc(Cl)nc2c1Br [Compound 411, 2-((1R,6R)-6-aminocyclohex-3-en-1-yl)-3-bromo-5-chloro-N-(2-fluorobenzyl)thieno[3,2-b]pyridin-7-amine] | 0.03 to 0.3 | 0.03 to 0.3 |
| N[C@@H]1CCCC(F)(F)[C@H]1c1sc2c(NCc3ccco3)nc(Cl)nc2c1Br [Compound 412, 6-((1S,6R)-6-amino-2,2-difluorocyclohexyl)-7-bromo-2-chloro-N-(furan-2-ylmethyl)thieno[3,2-d]pyrimidin-4-amine] | 0.3 to 1 | 0.3 to 1 |
| N[C@@H]1CC=CC[C@H]1c1sc2c(NCc3ccccc3)nc(Cl)nc2c1I [Compound 414, 6-((1R,6R)-6-aminocyclohex-3-en-1-yl)-N-benzyl-2-chloro-7-iodothieno[3,2-d]pyrimidin-4-amine] | 0.3 to 1 | 0.03 to 0.3 |
| N[C@@H]1CC=CC[C@H]1c1sc2c(NCc3ccsc3)cc(Cl)nc2c1Br [Compound 415, 2-((1R,6R)-6-aminocyclohex-3-en-1-yl)-3-bromo-5-chloro-N-(thiophen-3-ylmethyl)thieno[3,2-b]pyridin-7-amine] | 0.3 to 1 | 0.3 to 1 |
| N[C@@H]1CCCO[C@H]1c1c(I)c2nc(Cl)nc(NCc3cccs3)c2n1C(F)F [Compound 416, 6-((2R,3R)-3-aminotetrahydro-2H-pyran-2-yl)-2-chloro-5-(difluoromethyl)-7-iodo-N-(thiophen-2-ylmethyl)-5H-pyrrolo[3,2-d]pyrimidin-4-amine] | 0.03 to 0.3 | 0.03 to 0.3 |
| N[C@@H]1CC=CC[C@H]1c1c(Cl)c2nc(Cl)cc(NCc3ccccc3)c2n1C(F)F [Compound 417, 2-((1R,6R)-6-aminocyclohex-3-en-1-yl)-N-benzyl-3,5-dichloro-1-(difluoromethyl)-1H-pyrrolo[3,2-b]pyridin-7-amine] | ≤ 0.03 | ≤ 0.03 |

The next lines start with the values.

| IC50 [1] [µM] | IC50 (ATXN3 pre-mRNA) [µM] | Structure (SMILES) |
| --- | --- | --- |
| 0.03 to 0.3 | 0.03 to 0.3 | N[C@@H]1CC=CC[C@H]1c1sc2c(NCc3nccs3)cc(Cl)nc2c1Cl [Compound 380, 2-((1R,6R)-6-aminocyclohex-3-en-1-yl)-3,5-dichloro-N-(thiazol-2-ylmethyl)thieno[3,2-b]pyridin-7-amine] |
| 0.03 to 0.3 | 0.03 to 0.3 | Cn1c([C@@H]2CCOC[C@H]2N)c(Br)c2nc(Cl)cc(NCc3cccs3)c21 [Compound 384, 2-((3S,4R)-3-aminotetrahydro-2H-pyran-4-yl)-3-bromo-5-chloro-1-methyl-N-(thiophen-2-ylmethyl)-1H-pyrrolo[3,2-b]pyridin-7-amine] |
| 0.03 to 0.3 | 0.03 to 0.3 | CC#CCNc1cc(Cl)nc2c(I)c([C@@H]3CC=CC[C@H]3N)sc12 [Compound 386, 2-((1R,6R)-6-aminocyclohex-3-en-1-yl)-N-(but-2-yn-1-yl)-5-chloro-3-iodothieno[3,2-b]pyridin-7-amine] |
| 0.3 to 1 | 0.3 to 1 | N[C@@H]1CCCC[C@H]1c1c(I)c2nc(Cl)nc(NCc3ccco3)c2n1C(F)F [Compound 391, 6-((1R,2R)-2-aminocyclohexyl)-2-chloro-5-(difluoromethyl)-N-(furan-2-ylmethyl)-7-iodo-5H-pyrrolo[3,2-d]pyrimidin-4-amine] |
| 0.3 to 1 | 0.3 to 1 | COc1ncccc1C#Cc1c([C@H]2CC=CC[C@@H]2N)sc2c(NCc3cccs3)cc(Cl)nc12 [Compound 394, 2-((1S,6S)-6-aminocyclohex-3-en-1-yl)-5-chloro-3-((2-methoxypyridin-3-yl)ethynyl)-N-(thiophen-2-ylmethyl)thieno[3,2-b]pyridin-7-amine] |
| 0.3 to 1 | 0.03 to 0.3 | N[C@H]1CC=CC[C@@H]1c1sc2c(NCc3cccs3)cc(Cl)nc2c1C#Cc1ccncc1 [Compound 395, 2-((1S,6S)-6-aminocyclohex-3-en-1-yl)-5-chloro-3-(pyridin-4-ylethynyl)-N-(thiophen-2-ylmethyl)thieno[3,2-b]pyridin-7-amine] |
| 0.3 to 1 | 0.03 to 0.3 | CC#CCNc1cc(Cl)nc2c(Br)c([C@H]3CCOC[C@@H]3N)sc12 [Compound 398, 2-((3R,4S)-3-aminotetrahydro-2H-pyran-4-yl)-3-bromo-N-(but-2-yn-1-yl)-5-chlorothieno[3,2-b]pyridin-7-amine] |
| 0.3 to 1 | 0.03 to 0.3 | N[C@@H]1CC=CC[C@H]1c1sc2c(NCc3ccccc3)cc(Cl)nc2c1Br [Compound 403, 2-((1R,6R)-6-aminocyclohex-3-en-1-yl)-N-benzyl-3-bromo-5-chlorothieno[3,2-b]pyridin-7-amine] |
| 0.03 to 0.3 | 0.03 to 0.3 | N[C@@H]1CC=CC[C@H]1c1sc2c(NCc3ccccc3)cc(Cl)nc2c1Cl [Compound 404, 2-((1R,6R)-6-aminocyclohex-3-en-1-yl)-N-benzyl-3,5-dichlorothieno[3,2-b]pyridin-7-amine] |
| ≤ 0.03 | ≤ 0.03 | N[C@@H]1CCOC[C@H]1c1sc2c(NCc3cccs3)cc(Cl)nc2c1Cl [Compound 405, 2-((3S,4R)-4-aminotetrahydro-2H-pyran-3-yl)-3,5-dichloro-N-(thiophen-2-ylmethyl)thieno[3,2-b]pyridin-7-amine] |
| 0.03 to 0.3 | 0.03 to 0.3 | N[C@@H]1COCC[C@H]1c1sc2c(NCc3nccs3)cc(Cl)nc2c1I [Compound 408, 2-((3S,4R)-3-aminotetrahydro-2H-pyran-4-yl)-5-chloro-3-iodo-N-(thiazol-2-ylmethyl)thieno[3,2-b]pyridin-7-amine] |
| 0.03 to 0.3 | 0.03 to 0.3 | N[C@@H]1COCC[C@H]1c1sc2c(NCc3ccco3)cc(Cl)nc2c1Cl [Compound 410, 2-((3S,4R)-3-aminotetrahydro-2H-pyran-4-yl)-3,5-dichloro-N-(furan-2-ylmethyl)thieno[3,2-b]pyridin-7-amine] |
| 0.03 to 0.3 | 0.03 to 0.3 | Cc1c([C@@H]2CC=CC[C@H]2N)sc2c(NCc3ccco3)nc(Cl)nc12 [Compound 413, 6-((1R,6R)-6-aminocyclohex-3-en-1-yl)-2-chloro-N-(furan-2-ylmethyl)-7-methylthieno[3,2-d]pyrimidin-4-amine] |
| 0.03 to 0.3 | 0.03 to 0.3 | Cc1c([C@@H]2CC=CC[C@H]2N)sc2c(NCc3ccsc3)cc(Cl)nc12 [Compound 419, 2-((1R,6R)-6-aminocyclohex-3-en-1-yl)-5-chloro-3-methyl-N-(thiophen-3-ylmethyl)thieno[3,2-b]pyridin-7-amine] |
| 0.03 to 0.3 | 0.03 to 0.3 | N[C@H]1CC=CC[C@@H]1c1c(Cl)c2nc(Cl)cc(NCc3ccccc3)c2n1C(F)F [Compound 420, 2-((1S,6S)-6-aminocyclohex-3-en-1-yl)-N-benzyl-3,5-dichloro-1-(difluoromethyl)-1H-pyrrolo[3,2-b]pyridin-7-amine] |
